Source: patent publication US20250019520A1, “RELIEF PRECURSORS WITH ENHANCED STABILITY” (XSYS Germany GmbH, priority 2023, published 2025)

Experiments:
[1] = Thermal melt stability: onset time of crosslinking, SIS-rubber based formulation; type: physicochemical
Experimental: The thermal melt stability was assessed by recording the melt viscosity during heating. Crosslinking of the sample was recorded as an increase in viscosity. Oscillatory rheological measurements were carried out using a Kinexus lab+rheometer (Malvern Instruments Ltd., UK) under isothermal (T=160° C.) conditions. Data was recorded using the corresponding software rSPACE version 1.76 (Malvern Instruments Ltd., UK). As measurement geometry, parallel plates with a diameter of 2.5 cm of the upper plate were chosen. As sample, a disc of a relief precursor with a diameter of 2.5 cm was used. Prior to measurement, any foils (e.g. the cover sheet) and mask layers were removed from the relief precursor. Measurements were carried out in oscillation single frequency mode. The frequency was set to 1 Hz. The gap between the parallel plates was set constant to the respective sample thickness. Data points were recorded every 15 s. The complex shear viscosity η* was monitored over time t. The “onset time of crosslinking” was identified as “the time when the difference quotient Δη*/Δt is ≥1 Pa, with Δt=15 s”. A higher onset time indicates a higher thermal stability and stability towards mechanical stress.
In this example, another trial formulation based on a SIS tri-block copolymer was used. […]

[2] = Kneading trials at 180° C., onset of crosslinking seen as increase in torque; type: physicochemical; details: kneading at 180° C. for 60 min, SBS binder plus stabilizer
Experimental: Kneading trials were carried out using a ThermoFisher Scientifc Haake kneading device equipped with a Haake PolyLab OS RheoDrive 7 control unit, a Haake Rheomix 600 OS heating and kneading chamber with Roller Rotors R600. The torque and the sample temperature were recorded using the software PolySoft, version 2.1.0.1. For the measurement, a temperature of 180° C. was applied. The measurement was carried out for 60 min, respectively. The components were added to the kneading device as solids and were allowed to be mixed in the kneading device.
In the given sample, the amount of stabilizer was varied in the range of 0 to 1.0 parts by weight and the excess was counterbalanced by the amount of binder, respectively.
An increase in torque indicated the onset of crosslinking of the SBS-rubber due to insufficient stabilization. Without additional stabilizer, an increase in torque was observed within the first 10 min of measurement time. With BHT as stabilizer, an increase in torque was detected after 28 min of heating at 180° C. With ascorbyl palmitate, the best result was achieved, where crosslinking was observed after 50 min.

[3] = Printing plate evaluation: halftone and tonal values at 146 lpi; details: difference of tonal value of 5% halftone at 146 lpi versus plate without additional stabilizer
Experimental: To obtain a cliché, the laser ablatable mask on the front side was imaged using a TfxX 20 laser (Flint Group Germany GmbH, Germany, rotational speed: 10 to 11 rounds/s, power: 35 W (100% intensity)). The relief precursor was exposed to UV light from the backside through the carrier foil for 20 to 40 s and from the front side through the mask layer for 15 min. During the exposure at room temperature (being around 18-25° C.), no active heating was present. As a result of the crosslinking reaction due to the exposure, the temperature of the plate rose to around 40° C. (machine type: Combi FIII (Flint Group Germany GmbH, Germany), UVA intensity […], UVA tube type: Philips TL 80 W/10-R). […]
In this example, the effect of the stabilizer on the tonal values of the resulting printing plates was assessed since conventional stabilizers can impact tonal values as they may hinder curing. […] The stabilizer impact on the tonal value was calculated as the difference of the tonal value of the 5% halftone at 146 lpi of a plate without any additional stabilizer compared to the respective tonal value of a plate comprising a stabilizer.

Effect on the onset time of crosslinking compared with an equimolar amount of BHT [1]: more than five times as high | Onset time t/min [2]: 50 min | Stabilizer impact on tonal value [3]: 0.8%
Compound: CCCCCCCCCCCCCCCC(=O)OC[C@H](O)[C@H]1OC(=O)C(O)=C1O [Ascorbyl palmitate]
